Measured values from PubChem BioAssay AID1963448 (Molecular Pharmacology Branch, DTP, NCI, 2024).
Where “and” joins values, the source holds several entries; their conditions need not be identical. Identical values can stand only once.

System: 616215-338-R-J1-PDC complex spheroid growth, % test/control
Experiment: Anticancer human tumor 616215-338-R-J1-PDC patient-derived colon adenocarcinoma cell line growth inhibition [Asc]
Details: for viability, T/C: stronger effect = lower value
How it was run: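 Spheroid model: tumor line + HUVEC + hMSC. Single agents and combinations; top conc. at/near clinical Cmax (10 microM if undetermined), half-log dilutions. DMSO stocks at 800-fold test concentration.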

[1] = curve of first compound, second compound 0.1 µM
[2] = curve of first compound, second compound 0.316 µM
[3] = curve of first compound, second compound 1 µM
[4] = second compound 0.1 µM, first compound 0.0316 µM
[5] = second compound 0.1 µM, first compound 0.1 µM
[6] = second compound 0.1 µM, first compound 0.316 µM
[7] = second compound 0.1 µM, first compound 1 µM
[8] = second compound 0.316 µM, first compound 0.0316 µM
[9] = second compound 0.316 µM, first compound 0.1 µM
[10] = second compound 0.316 µM, first compound 0.316 µM
[11] = second compound 0.316 µM, first compound 1 µM
[12] = second compound 1 µM, first compound 0.0316 µM
[13] = second compound 1 µM, first compound 0.1 µM
[14] = second compound 1 µM, first compound 0.316 µM
[15] = second compound 1 µM, first compound 1 µM
[16] = curve of first compound, second compound 0.00316 µM
[17] = curve of first compound, second compound 0.01 µM
[18] = curve of first compound, second compound 0.0316 µM
[19] = second compound 0.00316 µM, first compound 0.00316 µM
[20] = second compound 0.00316 µM, first compound 0.01 µM
[21] = second compound 0.00316 µM, first compound 0.0316 µM
[22] = second compound 0.00316 µM, first compound 0.1 µM
[23] = second compound 0.00316 µM, first compound 0.316 µM
[24] = second compound 0.00316 µM, first compound 1 µM
[25] = second compound 0.01 µM, first compound 0.00316 µM
[26] = second compound 0.01 µM, first compound 0.01 µM
[27] = second compound 0.01 µM, first compound 0.0316 µM
[28] = second compound 0.01 µM, first compound 0.1 µM
[29] = second compound 0.01 µM, first compound 0.316 µM
[30] = second compound 0.01 µM, first compound 1 µM
[31] = second compound 0.0316 µM, first compound 0.00316 µM
[32] = second compound 0.0316 µM, first compound 0.01 µM
[33] = second compound 0.0316 µM, first compound 0.0316 µM
[34] = second compound 0.0316 µM, first compound 0.1 µM
[35] = second compound 0.0316 µM, first compound 0.316 µM
[36] = second compound 0.0316 µM, first compound 1 µM
[37] = second compound 0.1 µM, first compound 0.00316 µM
[38] = second compound 0.1 µM, first compound 0.01 µM
[39] = second compound 0.316 µM, first compound 0.00316 µM
[40] = second compound 0.316 µM, first compound 0.01 µM
[41] = second compound 1 µM, first compound 0.00316 µM
[42] = second compound 1 µM, first compound 0.01 µM
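Note: spheroids exposed to agents for seven days before readout.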
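Throughout, for viability, T/C: 100% = DMSO vehicle control viability.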

`C=CC(=O)N1CCN(c2nc(=O)n(-c3c(C)ccnc3C(C)C)c3nc(-c4c(O)cccc4F)c(F)cc23)C(C)C1` (stereo unspecified) + Cc1c(S(C)(=O)=O)c(-c2cc(F)cc(N3CCN(c4ccc(NS(=O)(=O)c5ccc(NC(CCN6CCC(C(=O)OCCCP(=O)(O)O)CC6)CSc6ccccc6)c(S(=O)(=O)C(F)(F)F)c5)cc4)CC3)c2)c(-c2ccc(Cl)cc2)n1C(C)C showed an IC50 [1] greater than 10000 nM, an IC50 [2] greater than 10000 nM and an IC50 [3] of 2350 nM. The IC50 (curve of first compound, second compound 3.16 µM) was less than 31.6 nM, the IC50 (curve of first compound, second compound 10 µM) was less than 31.6 nM and the viability, T/C [4] was 87.5%. The viability, T/C [5] was 89.8%, the viability, T/C [6] was 90.4% and the viability, T/C [7] was 92.9%. The viability, T/C (second compound 0.1 µM, first compound 3.16 µM) was 87.5%, the viability, T/C (second compound 0.1 µM, first compound 10 µM) was 88.3% and the viability, T/C [8] was 87.7%. It also gave a viability, T/C [9] of 86.9%, a viability, T/C [10] of 84.5% and a viability, T/C [11] of 92.1%. It also gave a viability, T/C (second compound 0.316 µM, first compound 3.16 µM) of 83.4%, a viability, T/C (second compound 0.316 µM, first compound 10 µM) of 64.4% and a viability, T/C [12] of 67.6%. It also gave a viability, T/C [13] of 74.5%, a viability, T/C [14] of 68% and a viability, T/C [15] of 61.6%. The viability, T/C (second compound 1 µM, first compound 3.16 µM) was 45.9%, the viability, T/C (second compound 1 µM, first compound 10 µM) was 42% and the viability, T/C (second compound 3.16 µM, first compound 0.0316 µM) was 36%. For the same compound, the viability, T/C (second compound 3.16 µM, first compound 0.1 µM) was 40.6%, the viability, T/C (second compound 3.16 µM, first compound 0.316 µM) was 37.9% and the viability, T/C (second compound 3.16 µM, first compound 1 µM) was 30.2%. It also gave a viability, T/C (second compound 3.16 µM, first compound 3.16 µM) of 22.3%, a viability, T/C (second compound 3.16 µM, first compound 10 µM) of 17.7% and a viability, T/C (second compound 10 µM, first compound 0.0316 µM) of 24.9%. It also gave a viability, T/C (second compound 10 µM, first compound 0.1 µM) of 26.2%, a viability, T/C (second compound 10 µM, first compound 0.316 µM) of 21.9% and a viability, T/C (second compound 10 µM, first compound 1 µM) of 20%. It also gave a viability, T/C (second compound 10 µM, first compound 3.16 µM) of 17.5% and a viability, T/C (second compound 10 µM, first compound 10 µM) of 5.58%.
In the case of `O=C(c1cc(Cc2n[nH]c(=O)c3ccccc23)ccc1F)N1CCN(C(=O)C2CC2)CC1`, the viability, T/C (compound 0.0316 µM) is reported as 97.1% and 97.4% and 112%, the viability, T/C (compound 0.1 µM) is reported as 99.8% and 94.7% and 98.3% and the viability, T/C (compound 0.316 µM) is reported as 97.7% and 99.4% and 100%. The viability, T/C (compound 1 µM) was 96.5% and 94.7% and 99.3%, the viability, T/C (compound 3.16 µM) was 96.8% and 106% and 90.6% and the viability, T/C (compound 10 µM) was 91.1% and 90.2% and 89.1%. It also gave an IC50 (curve of compound) greater than 10000 nM.
With `COc1c(OCCCN2CCOCC2)ccc2c3n(c(=NC(=O)c4cnc(N)nc4)nc12)CCN3` + CNC(C)C(=O)NC1CN(S(=O)(=O)c2cccc(S(=O)(=O)N3CCC4CCC(C(=O)NC(c5ccccc5)c5ccccc5)N4C(=O)C(NC(=O)C(C)NC)C3)c2)CCC2CCC(C(=O)NC(c3ccccc3)c3ccccc3)N2C1=O the IC50 [16] was 53.3 nM, the IC50 [17] was 54.9 nM and the IC50 [18] was 47 nM. For the same compound, the IC50 [1] was 46.4 nM, the IC50 [2] was 52.4 nM and the IC50 [3] was 40.3 nM. The viability, T/C [19] was 107%, the viability, T/C [20] was 83.5% and the viability, T/C [21] was 68.8%. For the same compound, the viability, T/C [22] was 30.4%, the viability, T/C [23] was 14.9% and the viability, T/C [24] was 2.9%. It also gave a viability, T/C [25] of 98.6%, a viability, T/C [26] of 101% and a viability, T/C [27] of 64%. For the same compound, the viability, T/C [28] was 32.5%, the viability, T/C [29] was 9.38% and the viability, T/C [30] was 2.23%. For the same compound, the viability, T/C [31] was 94.1%, the viability, T/C [32] was 97.8% and the viability, T/C [33] was 59.5%. For the same compound, the viability, T/C [34] was 26.1%, the viability, T/C [35] was 14.3% and the viability, T/C [36] was 1.77%. It also gave a viability, T/C [37] of 101%, a viability, T/C [38] of 92.4% and a viability, T/C [4] of 56.7%. For the same compound, the viability, T/C [5] was 30.4%, the viability, T/C [6] was 14.1% and the viability, T/C [7] was 1.87%. The viability, T/C [39] was 93.4%, the viability, T/C [40] was 97.8% and the viability, T/C [8] was 65.1%. For the same compound, the viability, T/C [9] was 27.7%, the viability, T/C [10] was 15.3% and the viability, T/C [11] was 3.07%. The viability, T/C [41] was 87.4%, the viability, T/C [42] was 89.4% and the viability, T/C [12] was 52.8%. It also gave a viability, T/C [13] of 26.8%, a viability, T/C [14] of 16.8% and a viability, T/C [15] of 6.17%.
For `O=C(c1ccc(F)c(F)c1Nc1ccc(I)cc1F)N1CC(O)([C@@H]2CCCCN2)C1` + CNC(C)C(=O)NC1CN(S(=O)(=O)c2cccc(S(=O)(=O)N3CCC4CCC(C(=O)NC(c5ccccc5)c5ccccc5)N4C(=O)C(NC(=O)C(C)NC)C3)c2)CCC2CCC(C(=O)NC(c3ccccc3)c3ccccc3)N2C1=O, the IC50 [16] was 40.6 nM, the IC50 [17] was 19.2 nM and the IC50 [18] was 46.6 nM. For the same compound, the IC50 [1] was 44.6 nM, the IC50 [2] was 38.5 nM and the IC50 [3] was 24 nM. It also gave a viability, T/C [19] of 113%, a viability, T/C [20] of 94.8% and a viability, T/C [21] of 64.3%. The viability, T/C [22] was 3.19%, the viability, T/C [23] was 0.64% and the viability, T/C [24] was 0.34%. It also gave a viability, T/C [25] of 98.9%, a viability, T/C [26] of 109% and a viability, T/C [27] of 8.64%. For the same compound, the viability, T/C [28] was 18.4%, the viability, T/C [29] was 2.31% and the viability, T/C [30] was 2.27%. The viability, T/C [31] was 103%, the viability, T/C [32] was 87.8% and the viability, T/C [33] was 71.4%. It also gave a viability, T/C [34] of 8.55%, a viability, T/C [35] of 1.84% and a viability, T/C [36] of 1.89%. It also gave a viability, T/C [37] of 99.6%, a viability, T/C [38] of 99.8% and a viability, T/C [4] of 70.7%. It also gave a viability, T/C [5] of 1.22%, a viability, T/C [6] of 0.55% and a viability, T/C [7] of 1.32%. It also gave a viability, T/C [39] of 109%, a viability, T/C [40] of 107% and a viability, T/C [8] of 56%. For the same compound, the viability, T/C [9] was 14.7%, the viability, T/C [10] was 2.54% and the viability, T/C [11] was 1.35%. For the same compound, the viability, T/C [41] was 102%, the viability, T/C [42] was 106% and the viability, T/C [12] was 32.9%. The viability, T/C [13] was 1.86%, the viability, T/C [14] was 0.87% and the viability, T/C [15] was 1.24%.
